In patent US8058039B2 (North American Bioproducts Corporation, priority 2008, dated 2011):
Where “and” joins values, the source holds several entries; their conditions need not be identical. Identical values can stand only once.

Tests used:
Type in all cases: cell-based
[1] = test system: bacteria encountered in ethanol production; assay: Alcohol production plant trial, fermentor drop data (corn, batch fermentation)
Procedure: This trial was conducted at a 50 million gallon per year (m/g/y) dry grind fuel alcohol production facility utilizing corn as a fermentation substrate. Batch yeast propagation and fermentation process were utilized. Antimicrobials were added to the fermentor during the fill cycle at approximately 30% fill. No other changes were made to the process or chemical additions that would influence the fermentation kinetics monitored during 3 sets of fermentor batches listed below. The fermentation data was accumulated at the end (drop) of the fermentation process for each of the fermentors. […] See results in Table 2. […] See results in Table 3. […] See results in Table 4.

[2] = test system: industry obtained Pediococcus bacteria; assay: Virginiamycin (V100) vs. Erythromycin (V200) comparative efficacy analysis, 24 well plate growth test in MRS broth; settings: 33° C., read at 24 and 48 hours
Text: (§1) The antibiotics currently most often used at alcohol production plants are either Penicillin-based or Virginiamycin-based. This example compares the use of Bactenix V200, an Erythromycin-based antibiotic versus V100, a Virginiamycin-based antibiotic also available from NABC to control Pediococcus test organism along with “industry normal” Lactobacillus. The trial uses an alcohol water mixture to assure total dissolving of antibiotics. This assures that the correct concentrations of antibiotics are going into the test wells and thereby preventing under dosing during the trial. All bacteria tested were industry specific isolates that were obtained from actual mash samples from alcohol production plants. The trial was set up as follows: • 1. Dissolve 0.1 g of each of the antibiotics in 1 ml water and then add 5 ml of ethanol, vortex and bring up to 10 ml with sterile water to from a suspension. • 2. Dilute the previous suspension 1:10 with sterile water. This gives a one mg/ml concentration. • 3. Filter the suspension by running through a 0.2 μm syringe filter. • 4. Add antibiotics to MRS (DeMan, Rogosa and Sharpe) broth at the concentrations required for the test. • 5. Take two μl of a fresh 24-hour culture of the target organisms and add to the corresponding empty wells in a pre-labeled 24 well tissue culture plate. • 6. Add one ml of the appropriate antibiotic media to each well of the plate. • 7. Incubate at 33° C. for 24 hours. • 8. Read plates for bacterial growth and re-incubate the plates at 33° C. • 9. After 48 hours read and report the final results.

[3] = test system: Pediococcus test organism along with “industry normal” Lactobacillus; assay: as above; settings: 33° C., read at 24 and 48 hours
Text: as §1

[4] = test system: Saccharomyces cerevisea yeast (BioFerm XR yeast); assay: Impact of Erythromycin on the function and replication of yeast during lab scale corn mash fermentation; settings: for Cell Count: number of cells in a given area
Procedure: A study was conducted to determine if the fermentation antimicrobial Erythromycin, interfered with cell growth and the fermentation function of Saccharomyces cerevisea yeast used in the fermentation phase of the production of fuel ethanol. […] This study looked at the ability of yeast to replicate and ferment a corn mash substrate with and without the presence of Erythromycin.
This study was set up in a series of fermentation vessels. All antibiotic concentrations were tested in triplicate. Cell counts were done on one flask for each treatment at 24 and 48 hours and final testing of the fermentation reactions by HPLC was performed at 48 hours. The experiment was set as follows:
1. Antibiotic solutions were prepared to provide a sterile 1 and 10 μg/ml solutions.
2. Antibiotic solutions tested were as follows:
A. Control (NA), no antibiotic
3. Fermentations were set up using 31% solids corn mash using saccharifying enzymes and the following procedure:
A. Yeast Conditioning: • 1. Add 2 g yeast to 10 mil sterile water for each 3 flasks to test, (10 g yeast to 50 ml water) into a sterile 250 ml flask and place in water bath set to 100° F. • 2. Incubate at 100° F. for 30 minutes with occasional mixing. • 3. Remove flasks from water bath and divide suspension between the all flasks for the trial.
B. Fermentation Procedure • 1. To prepared mash, add the following. • a. Add 0.58 g urea/liter mash and mix. • b. Add 0.2 ml GA per liter and mix. • 2. Remove sample for background HPLC testing. • 3. Add antibiotic solution to labeled sterile 250 ml flasks. • 4. Add hydrated yeast suspension to mash and mix well. • 5. Add sterile stir bar to each flask and add about 150 ml mash into each 250 ml flask for a total of 12 flasks. • Three flasks for each trial as follows: • a. First group, no antibiotic (NA) flasks 1-3 • b. […] Cover each flask with a gas trap in a sterilized stopper. • 7. Place in a 33° C. water bath with continuous mixing at 280 rpm at 75% power. • a. Turn power on to the magnetic stirrers after placing the flasks onto the platforms to move the stir bars; make sure that mixing is occurring in the flasks. • 8. Remove sample at 24 hours and perform cell count. • 9. Incubate sample for 48 hours, enough time for complete fermentation • 10. Collect samples at the following times for HPLC testing: • 0 hours (one per treatment); 24 hours; 48 hours • Perform 48 hour cell count on same flask as for 24 hour count.

[5] = Set 1 “Pre Erythromycin trial”, 0.5 ppm Virginiamycin, at drop
[6] = Set 3 “Post Erythromycin test”, 0.5 ppm Virginiamycin, at drop
[7] = Set 3 “Post Erythromycin test”, 0.5 ppm Virginiamycin, single fermentor batch at drop
[8] = 0.5 ppm Erythromycin vs 0.5 ppm Virginiamycin batches
[9] = Set 2 vs Sets 1 and 3, same amount of antibiotic
[10] = Set 2 “Erythromycin trial”, 0.5 ppm Erythromycin, at drop

Virginiamycin was tested, and the “Acetic %, 28 batch average” value [1, 5] was 0.04%, the “EtOH %, 28 batch average” value [1, 5] was 15.67% and the “Glucose %, 28 batch average” value [1, 5] was 0.29%. For the same molecule, the “Lactic %, 28 batch average” value [1, 5] was 0.50%, the Acetic % ([1]; Set 1 “Pre Erythromycin trial”, 0.5 ppm Virginiamycin, single fermentor batch at drop) was 0.02% and 0.03% and 0.04% and 0.13% and 0.05% and the “Acetic %, 8 batch average” value [1, 6] was 0.04%. For the same molecule, the “EtOH %, 8 batch average” value [1, 6] was 15.58%, the “Glucose %, 8 batch average” value [1, 6] was 0.32% and the “Lactic %, 8 batch average” value [1, 6] was 0.47%. For the same molecule, the Acetic % [1, 7] was 0.04% and 0.03% and 0.05%, the EtOH % [1, 7] was 15.77% and 15.53% and 15.28% and 15.73% and 15.78% and 15.5% and 15.56% and 15.52% and the Glucose % [1, 7] was 0.35% and 0.29% and 0.31% and 0.33% and 0.3% and 0.32%. For the same molecule, the Lactic % [1, 7] was 0.44% and 0.54% and 0.70% and 0.38% and 0.43% and 0.50% and 0.40%, the “inclusion rate up to which Pediococcus was not controlled” value [2] was over 3.0 ppm and the “effectiveness against all organisms tested” value [3] was “not effective against all organisms tested”.
In the case of `CC[C@H]1OC(=O)[C@H](C)[C@@H](O[C@H]2C[C@@](C)(OC)[C@@H](O)[C@H](C)O2)[C@H](C)[C@@H](O[C@@H]2O[C@H](C)C[C@H](N(C)C)[C@H]2O)[C@](C)(O)C[C@@H](C)C(=O)[C@H](C)[C@@H](O)[C@]1(C)O` [Erythromycin], the “% Budding” value ([4]; Erythromycin 5 ppm, 24 hr) is reported as 8%, the “% Viable” value ([4]; Erythromycin 5 ppm, 24 hr) is reported as 82% and the “Cell Count” value ([4]; Erythromycin 5 ppm, 24 hr) is reported as 467. For the same molecule, the “% Budding” value ([4]; Erythromycin 5 ppm, 48 hr) was 5%, the “% Viable” value ([4]; Erythromycin 5 ppm, 48 hr) was 63% and the “Cell Count” value ([4]; Erythromycin 5 ppm, 48 hr) was 430. The “% Budding” value ([4]; Erythromycin 10 ppm, 24 hr) was 8%, the “% Viable” value ([4]; Erythromycin 10 ppm, 24 hr) was 80% and the “Cell Count” value ([4]; Erythromycin 10 ppm, 24 hr) was 434. The “% Budding” value ([4]; Erythromycin 10 ppm, 48 hr) was 5%, the “% Viable” value ([4]; Erythromycin 10 ppm, 48 hr) was 61% and the “Cell Count” value ([4]; Erythromycin 10 ppm, 48 hr) was 454. The “% Budding” value ([4]; Erythromycin 20 ppm, 24 hr) was 7%, the “% Viable” value ([4]; Erythromycin 20 ppm, 24 hr) was 85% and the “Cell Count” value ([4]; Erythromycin 20 ppm, 24 hr) was 431. The “% Budding” value ([4]; Erythromycin 20 ppm, 48 hr) was 4%, the “% Viable” value ([4]; Erythromycin 20 ppm, 48 hr) was 62% and the “Cell Count” value ([4]; Erythromycin 20 ppm, 48 hr) was 446. For the same molecule, the “yeast growth with Erythromycin present vs without” value ([4]; at 48 hr) was “marginal better”, the “adverse effect on the yeast” value ([4]; used up to 20 ppm) was “no discernable adverse effect” and the “decrease of lactic acid production during the erythromycin trial” value [1, 8] was 0.23%. The “increase of ethanol production during the erythromycin trial” value [1, 8] was 0.17%, the “production increase of ethanol per fermentor” value [1, 8] was 816 gallons of ethanol per fermentor and the “final ethanol production compared to Virginiamycin fermentors” value [1, 9] was “increase in final ethanol production”. The “glucose utilized compared to Virginiamycin fermentors” value [1, 9] was “utilized the same amount of glucose”, the “lactic acid compared to Virginiamycin fermentors” value [1, 9] was “decrease in lactic acid” and the “Acetic %, 27 batch average” value [1, 10] was 0.04%. For the same molecule, the “EtOH %, 27 batch average” value [1, 10] was 15.84%, the “Glucose %, 27 batch average” value [1, 10] was 0.30% and the “Lactic %, 27 batch average” value [1, 10] was 0.27%. For the same molecule, the Acetic % ([1]; Set 2 “Erythromycin trial”, 0.5 ppm Erythromycin, single fermentor batch at drop) was 0.03% and 0.04% and 0.05% and 0.02% and 0.06% and the “concentration effective against all organisms tested” value [3] was 0.5 ppm.
